What all share (assay type): biochemical
The target in experiment [1] is T1, JAK1 (aa 850-1154, catalytic domain, GST-tag) (Homo sapiens, UniProt P23458).
T1 construct: JAK1 (aa 850-1154) and TYK2 (aa 871-1187) are expressed with an N-terminally fused GST-tag; GST (N); purchased Carna Biosciences, Inc; host or cells: baculovirus expression system
Briefly: JAK kinase assay (HTRF, phosphorylation of TK substrate-biotin), JAK1. The conditions noted are these: HTRF assay, ATP at Km (7 μM); read-out: JAK1 kinase inhibitory activity (EC50 indicator). The essentials:
(§1)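 EC50 values come from HTRF signal of phospho-peptide detected by STK Ab Cryptate and Streptavidin-XL665 after overnight incubation. Reactions ran 20-30 min at RT in Hepes pH 7.0, 0.01% BSA, 1 mM DTT, with ATP at Km: 7, 4, 2 and 13 μM for JAK1, JAK2, JAK3, TYK2.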
(In TR-FRET formats the signal depends on donor and acceptor labels being close together.)

Experiment [2] has as its target T2, JAK2 (catalytic domain, His-tag) (Homo sapiens, UniProt O60674).
T2 construct: All four purified enzymes contain only the catalytic domain; His (N); purchased Carna Biosciences, Inc; host or cells: baculovirus expression system
Briefly: JAK kinase assay (HTRF, phosphorylation of TK substrate-biotin), JAK2. The conditions noted are these: HTRF assay, ATP at Km (4 μM); read-out: JAK2 kinase inhibitory activity (EC50 indicator). In short, it runs like this:
as §1

The target of experiment [3] is T3, TYK2 (aa 871-1187, catalytic domain, GST-tag) (Homo sapiens, UniProt P29597).
T3 construct: JAK1 (aa 850-1154) and TYK2 (aa 871-1187) are expressed with an N-terminally fused GST-tag; GST (N); purchased Carna Biosciences, Inc; host or cells: baculovirus expression system
T3 sequence (P29597 871-1187): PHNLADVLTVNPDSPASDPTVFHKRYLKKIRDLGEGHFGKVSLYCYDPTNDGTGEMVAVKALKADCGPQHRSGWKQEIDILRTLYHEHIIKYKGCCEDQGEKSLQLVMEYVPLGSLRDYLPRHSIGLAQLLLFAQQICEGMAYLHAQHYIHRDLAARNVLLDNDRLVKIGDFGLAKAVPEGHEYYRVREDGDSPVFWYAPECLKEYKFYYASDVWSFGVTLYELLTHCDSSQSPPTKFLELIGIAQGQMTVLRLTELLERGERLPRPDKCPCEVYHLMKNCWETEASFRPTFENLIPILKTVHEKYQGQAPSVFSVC
Briefly: JAK kinase assay (HTRF, phosphorylation of TK substrate-biotin), TYK2. Particulars: HTRF assay, ATP at Km (13 μM); read-out: TYK2 kinase inhibitory activity (EC50 indicator). In short, it runs like this: as §1

Experiment [4] concerns the target T4, JAK3 (catalytic domain, His-tag) (Homo sapiens, UniProt P52333).
T4 construct: All four purified enzymes contain only the catalytic domain; His (N); purchased Carna Biosciences, Inc; host or cells: baculovirus expression system
Description: JAK kinase assay (HTRF, phosphorylation of TK substrate-biotin), JAK3. The conditions noted are these: HTRF assay, ATP at Km (2 μM); read-out: JAK3 kinase inhibitory activity (EC50 indicator). In short, it runs like this: as §1

T1 sequence (P23458 850-1154): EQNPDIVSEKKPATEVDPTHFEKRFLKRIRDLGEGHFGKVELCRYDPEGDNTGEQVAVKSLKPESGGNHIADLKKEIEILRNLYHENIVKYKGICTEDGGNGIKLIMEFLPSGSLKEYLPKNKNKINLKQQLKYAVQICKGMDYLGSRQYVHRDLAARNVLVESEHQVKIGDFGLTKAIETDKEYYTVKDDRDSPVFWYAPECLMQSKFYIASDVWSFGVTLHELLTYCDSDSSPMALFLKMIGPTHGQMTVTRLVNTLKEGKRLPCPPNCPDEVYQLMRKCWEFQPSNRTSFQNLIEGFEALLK
T2 sequence (O60674 849-1124 limits assumed): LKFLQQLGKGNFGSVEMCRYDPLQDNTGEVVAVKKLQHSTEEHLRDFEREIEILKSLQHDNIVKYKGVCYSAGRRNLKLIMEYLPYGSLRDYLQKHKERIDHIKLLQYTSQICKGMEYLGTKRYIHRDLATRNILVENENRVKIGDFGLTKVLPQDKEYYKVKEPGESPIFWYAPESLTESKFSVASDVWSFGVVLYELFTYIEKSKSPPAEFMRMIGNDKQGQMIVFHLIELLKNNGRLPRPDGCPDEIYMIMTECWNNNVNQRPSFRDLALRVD
T4 sequence (P52333 822-1111 limits assumed): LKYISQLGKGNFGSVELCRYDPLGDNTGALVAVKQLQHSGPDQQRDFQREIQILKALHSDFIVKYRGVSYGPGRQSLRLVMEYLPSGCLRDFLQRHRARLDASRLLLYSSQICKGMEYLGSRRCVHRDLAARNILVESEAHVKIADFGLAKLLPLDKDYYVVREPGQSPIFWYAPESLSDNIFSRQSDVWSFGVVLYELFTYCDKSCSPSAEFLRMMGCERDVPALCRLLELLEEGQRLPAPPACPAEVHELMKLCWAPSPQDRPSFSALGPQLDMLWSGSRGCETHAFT

By EC50 is commonly meant the concentration at which the effect is half-maximal. With `N#Cc1cccc(CC(=O)N2CCN(c3ncnc4[nH]cc(Cl)c34)CC23CC3)c1` [Example 323, 3-{2-[7-(5-Chloro-7H-pyrrolo[2,3-d]pyrimidin-4-yl)-4,7-diaza-spiro[2.5]oct-4-yl]-2-oxo-ethyl}-benzonitrile], the EC50 is more than 500 nM in experiment [1], less than 100 nM in experiment [2], more than 500 nM in experiment [3] and 100 to 500 nM in experiment [4].
Consider `N#Cc1ccc(CC(=O)N2CCN(c3ncnc4[nH]cc(Cl)c34)CC23CC3)cc1` [Example 324, 4-{2-[7-(5-Chloro-7H-pyrrolo[2,3-d]pyrimidin-4-yl)-4,7-diaza-spiro[2.5]oct-4-yl]-2-oxo-ethyl}-benzonitrile], for which the EC50 was less than 100 nM in experiment [1], less than 100 nM in experiment [2], more than 500 nM in experiment [3] and less than 100 nM in experiment [4].
With `N#CCCC(=O)N1CCN(c2ncnc3[nH]cc(Cl)c23)CC12CC2` [Example 325, 4-[7-(5-Chloro-7H-pyrrolo[2,3-d]pyrimidin-4-yl)-4,7-diaza-spiro[2.5]oct-4-yl]-4-oxo-butyronitrile], the EC50 in experiment [1] was more than 500 nM; in experiment [2], 100 to 500 nM; in experiment [3], more than 500 nM; in experiment [4] it was 100 to 500 nM.
Turning to `Cc1c[nH]c2ncnc(N3CCN(C(=O)c4cnccn4)C4(CC4)C3)c12` [Example 326, [7-(5-Methyl-7H-pyrrolo[2,3-d]pyrimidin-4-yl)-4,7-diaza-spiro[2.5]oct-4-yl]-pyrazin-2-yl-methanone], the EC50 in experiment [1], in experiment [2], in experiment [3] and in experiment [4] was more than 500 nM each time.
As for `Cc1c[nH]c2ncnc(N3CCN(C(=O)Cc4cccc(CC#N)c4)C4(CC4)C3)c12` [Example 327, (3-{2-[7-(5-Methyl-7H-pyrrolo[2,3-d]pyrimidin-4-yl)-4,7-diaza-spiro[2.5]oct-4-yl]-2-oxo-ethyl}-phenyl)-acetonitrile], the EC50 in experiment [1], in experiment [2], in experiment [3] and in experiment [4] was more than 500 nM each time.
As to `Cc1c[nH]c2ncnc(N3CCN(C(=O)Cc4ccc(CC#N)cc4)C4(CC4)C3)c12` [Example 328, (4-{2-[7-(5-Methyl-7H-pyrrolo[2,3-d]pyrimidin-4-yl)-4,7-diaza-spiro[2.5]oct-4-yl]-2-oxo-ethyl}-phenyl)-acetonitrile], the EC50 in experiment [1] was more than 500 nM; in experiment [2] it was more than 500 nM; in experiment [3], more than 500 nM; in experiment [4] it was 100 to 500 nM.
Regarding `Cc1c[nH]c2ncnc(N3CCN(C(=O)C4(C#N)CC4)C4(CC4)C3)c12` [Example 329, 1-[7-(5-Methyl-7H-pyrrolo[2,3-d]pyrimidin-4-yl)-4,7-diaza-spiro[2.5]octane-4-carbonyl]-cyclopropanecarbonitrile], the EC50 in experiment [1], in experiment [2], in experiment [3] and in experiment [4] was more than 500 nM in each case.
As to `Cc1c[nH]c2ncnc(N3CCN(C(=O)Cc4ccc(F)cc4)C4(CC4)C3)c12` [Example 330, 2-(4-Fluoro-phenyl)-1-[7-(5-methyl-7H-pyrrolo[2,3-d]pyrimidin-4-yl)-4,7-diaza-spiro[2.5]oct-4-yl]-ethanone], the EC50 in experiment [1] was 100 to 500 nM; in experiment [2], 100 to 500 nM; in experiment [3], more than 500 nM; in experiment [4] it was 100 to 500 nM.
Turning to `Cc1c[nH]c2ncnc(N3CCN(C(=O)Cc4ccc(C(F)(F)F)cc4)C4(CC4)C3)c12` [Example 331, 1-[7-(5-Methyl-7H-pyrrolo[2,3-d]pyrimidin-4-yl)-4,7-diaza-spiro[2.5]oct-4-yl]-2-(4-trifluoromethyl-phenyl)-ethanone], the EC50 in experiment [1] is 100 to 500 nM; in experiment [2] it was 100 to 500 nM; in experiment [3], more than 500 nM; in experiment [4] it was less than 100 nM.
As for `Cc1c[nH]c2ncnc(N3CCN(C(=O)CCCC#N)C4(CC4)C3)c12` [Example 332, 5-[7-(5-Methyl-7H-pyrrolo[2,3-d]pyrimidin-4-yl)-4,7-diaza-spiro[2.5]oct-4-yl]-5-oxo-pentanenitrile], the EC50 in experiment [1], in experiment [2], in experiment [3] and in experiment [4] was more than 500 nM each time.
For the compound `Cc1c[nH]c2ncnc(N3CCN(C(=O)Cc4cccc(C#N)c4)C4(CC4)C3)c12` [Example 333, 3-{2-[7-(5-Methyl-7H-pyrrolo[2,3-d]pyrimidin-4-yl)-4,7-diaza-spiro[2.5]oct-4-yl]-2-oxo-ethyl}-benzonitrile], the EC50 in experiment [1], in experiment [2], in experiment [3] and in experiment [4] was more than 500 nM each time.
With `Cc1c[nH]c2ncnc(N3CCN(C(=O)Cc4ccc(C#N)cc4)C4(CC4)C3)c12` [Example 334, 4-{2-[7-(5-Methyl-7H-pyrrolo[2,3-d]pyrimidin-4-yl)-4,7-diaza-spiro[2.5]oct-4-yl]-2-oxo-ethyl}-benzonitrile], the EC50 is 100 to 500 nM in experiment [1], less than 100 nM in experiment [2], more than 500 nM in experiment [3] and less than 100 nM in experiment [4].
As for `Cc1c[nH]c2ncnc(N3CCN(C(=O)CCC#N)C4(CC4)C3)c12` [Example 335, 4-[7-(5-Methyl-7H-pyrrolo[2,3-d]pyrimidin-4-yl)-4,7-diaza-spiro[2.5]oct-4-yl]-4-oxo-butyronitrile], the EC50 in experiment [1], in experiment [2], in experiment [3] and in experiment [4] was more than 500 nM in each case.
`COC(=O)c1cc2c(N3CCN(C(=O)C4(C#N)CC4)C4(CC4)C3)ncnc2[nH]1` [Example 336, 4-[4-(1-Cyano-cyclopropanecarbonyl)-4,7-diaza-spiro[2.5]oct-7-yl]-7H-pyrrolo[2,3-d]pyrimidine-6-carboxylic acid methyl ester]: the EC50 in experiment [1], in experiment [2], in experiment [3] and in experiment [4] was more than 500 nM each time.
As for `COC(=O)c1cc2c(N3CCN(C(=O)Cc4ccc(F)cc4)C4(CC4)C3)ncnc2[nH]1` [Example 337, 4-{4-[2-(4-Fluoro-phenyl)-acetyl]-4,7-diaza-spiro[2.5]oct-7-yl}-7H-pyrrolo[2,3-d]pyrimidine-6-carboxylic acid methyl ester], the EC50 in experiment [1], in experiment [2], in experiment [3] and in experiment [4] was more than 500 nM in each case.
Take `COC(=O)c1cc2c(N3CCN(C(=O)Cc4ccc(C(F)(F)F)cc4)C4(CC4)C3)ncnc2[nH]1` [Example 338, 4-{4-[2-(4-Trifluoromethyl-phenyl)-acetyl]-4,7-diaza-spiro[2.5]oct-7-yl}-7H-pyrrolo[2,3-d]pyrimidine-6-carboxylic acid methyl ester]: the EC50 in experiment [1], in experiment [2], in experiment [3] and in experiment [4] was more than 500 nM in each case.
For `COC(=O)c1cc2c(N3CCN(C(=O)CCCC#N)C4(CC4)C3)ncnc2[nH]1` [Example 339, 4-[4-(4-Cyano-butyryl)-4,7-diaza-spiro[2.5]oct-7-yl]-7H-pyrrolo[2,3-d]pyrimidine-6-carboxylic acid methyl ester], the EC50 in experiment [1], in experiment [2], in experiment [3] and in experiment [4] was more than 500 nM throughout.
Regarding `COC(=O)c1cc2c(N3CCN(C(=O)CCC#N)C4(CC4)C3)ncnc2[nH]1` [Example 340], the EC50 in experiment [1], in experiment [2], in experiment [3] and in experiment [4] was more than 500 nM each time.
Consider `O=C(c1ccc2[nH]ccc2c1)N1[C@@H]2CC[C@H]1CN(c1ncnc3[nH]ccc13)C2` [Example 341, (1H-Indol-5-yl)-[3-(7H-pyrrolo[2,3-d]pyrimidin-4-yl)-3,8-diaza-bicyclo[3.2.1]oct-8-yl]-methanone], for which the EC50 is less than 100 nM in experiment [1], less than 100 nM in experiment [2], 100 to 500 nM in experiment [3] and less than 100 nM in experiment [4].
On to `N#CCOc1ccc(C(=O)N2[C@@H]3CC[C@@H]2CN(c2ncnc4[nH]ccc24)C3)cc1` [Example 342, {4-[3-(7H-Pyrrolo[2,3-d]pyrimidin-4-yl)-3,8-diaza-bicyclo[3.2.1]octane-8-carbonyl]-phenoxy}-acetonitrile], for which the EC50 in experiment [1] is less than 100 nM; in experiment [2], less than 100 nM; in experiment [3], more than 500 nM; in experiment [4], 100 to 500 nM.
